Test results published in patent publication US8470870B2, “Solid forms of an anti-HIV phosphoindole compound” (Idenix Pharmaceuticals, Inc., priority 2008, dated 2013).
Converted amounts (≈) assume the structure as drawn.

Tests used:
[1] = test system: several serine proteases like S. griseus proteases A and B, α-chymotrypsin, chymase, and subtilisin; conditions: cited from earlier work
Annealing experiment = type: physicochemical; conditions: 14 days at 46° C.
Experimental: In addition to the solvent recrystallization experiments and slurry experiments, annealing experiments were performed. These experiments entailed looking for structural changes as a function of temperature. This was accomplished by using variable-temperature XRD, and variable temperature ovens, and DSC experiments.

[2] = Hydration experiment at 95% RH; type: physicochemical; conditions: 18 days
Experimental: Hydration experiments were performed on (2-carbamoyl-5-chloro-1H-indol-3-yl)-[3-((E)-2-cyano-vinyl)-5-methyl-phenyl]-(R)-phosphinic acid methyl ester Form III sample. A known weight of sample was exposed to a 95% RH environment using a saturated solution of […].

[3] = Non-competitive slurry experiments in neat solvents; type: physicochemical
Experimental: Noncompetitive slurry experiments were performed. These experiments rely on solubility differences of different polymorphic forms (if the compound exists in different polymorphic forms). […] Essentially, when a solid is dissolved in a (slurry) solvent, a saturated solution eventually results. The solution is saturated with respect to the polymorphic form dissolved. […] In addition, noncompetitive slurry experiments are often useful in identifying solvents that form solvates with the compound. […] The solids were mechanically filtered and analyzed by XRD to determine the resulting form. To avoid possible desolvation or physical change after isolation, the samples were not subjected to drying before X-ray analysis.

[4] = Solubility in recrystallization solvents (Panel 1); type: physicochemical; conditions: organic solvent or mixture, thermodynamic from solid, saturation temp. 25 °C
Experimental: Milligram size quantities of each sample were placed into a vial. Solvent was added and the vials were vortexed for a few minutes, followed by visual observation for remaining solids. The solvent was incrementally added until the solids were dissolved, or a maximum volume of solvent was added and the experiment was terminated. Parallel to that, a suspension is made and filtered, the solids was examined by XRD to determine if a phase transformation occurs. Saturated solutions were prepared by agitating excess test material in contact with the various solvent systems at the saturation temperature. The mother liquor was separated from the residual solids by filtration. The mother liquor was then heated above the saturation temperature (overheated) to dissolve any remaining solids. The temperature of the solutions was then adjusted to the growth temperature and a controlled nitrogen shear flow was introduced to begin solvent evaporation.

[5] = Apparent kinetic solubility in 2-butanol of different crystalline forms; type: physicochemical; conditions: dry 2-butanol; for Apparent Kinetic Solubility: 25° C.; for relative solubility among Forms I, VIII and IX: ambient temperature
Experimental: Milligram size quantities of each sample were placed into a vial. Solvent was added and the vials were vortexed for a few minutes, followed by visual observation for remaining solids. The solvent was incrementally added until the solids were dissolved, or a maximum volume of solvent was added and the experiment was terminated. Parallel to that, a suspension is made and filtered, the solids was examined by XRD to determine if a phase transformation occurs. Solubility experiments were performed to determine the solubility of the different polymorphic forms. […] Solubility data were collected on polymorphs I, VIII, and IX. Two of the forms were anhydrous and one was hydrated. […] Excess solids were placed in a test tube, solvent was then added in the tube, vortexed, and examined visually to determine if all the solids had dissolved. Attempts were made to prepare saturated or nearly saturated solutions of each polymorphic form by exposing excess solids of each polymorph to dry 2-butanol.

[6] = Form I/Form VIII competitive slurry in water-methanol mixtures; type: physicochemical
Experimental: Additional competitive slurry experiments were performed by mixing excess amounts of polymorphic forms in a solvent system and agitating the mixture isothermally. The competitive slurry experiments were used in attempts to identify the critical water activity levels for the interconversion of Form I (anhydrate target form) and Form VIII (monohydrate form). This was used to identify the water content range that can be used during processing to successfully isolate Form I in a reproducible manner. In each competitive slurry experiment, an excess of Form I and Form VIII of known weight was added to a water-methanol mixture. The suspension was slurred at ambient temperature (22° C.) or 45° C. continuously for up to 12 days in order to obtain thermodynamic equilibrium. Excess solids were collected at different slurry times by centrifugation, and then characterized by XRD. To avoid possible desolvation or physical change after isolation, the samples were not subjected to drying before X-ray analysis.

[7] = Solubility in water (preliminary, in words); type: physicochemical
Experimental: Milligram size quantities of each sample were placed into a vial. Solvent was added and the vials were vortexed for a few minutes, followed by visual observation for remaining solids. The solvent was incrementally added until the solids were dissolved, or a maximum volume of solvent was added and the experiment was terminated. Parallel to that, a suspension is made and filtered, the solids was examined by XRD to determine if a phase transformation occurs. Solubility experiments were performed to determine the solubility of the different polymorphic forms. […] Solubility data were collected on polymorphs I, VIII, and IX. Two of the forms were anhydrous and one was hydrated.

[8] = Competitive slurry experiments; type: physicochemical
Experimental: Competitive slurry experiments were performed by mixing excess amounts of the polymorphic forms together in different solvents and agitating isothermally. These types of slurry experiments were used in attempts to determine which phase is more thermodynamically stable under the conditions used. Slurry experiments were generally used to examine the energy relationship between Form I and Form IX, and to examine how these two forms may interconvert with the monohydrate (Form VIII).

In the case of Eglin c, the potency of inhibition [1] is listed as “nanomolar potency inhibition”.
For CO[P@](=O)(c1cc(C)cc(/C=C/C#N)c1)c1c(C(N)=O)[nH]c2ccc(Cl)cc12 [Form III], the “XRD pattern after annealing” value (Annealing experiment) was “no change in the XRD pattern”, the “XRD pattern after exposure to humidity” value [2] was “no changes in XRD pattern” and the “form after slurry (ripening) in methanol” value ([3]; neat methanol, about 1 day, ambient temperature) was “converted to Form I”. For the same compound, the “form after non-competitive slurry in water” value ([3]; water, 3 days) was “resulted in Form VIII”.
In the case of CO[P@](=O)(c1cc(C)cc(/C=C/C#N)c1)c1c(C(N)=O)[nH]c2ccc(Cl)cc12 [compound of Formula I, (2-carbamoyl-5-chloro-1H-indol-3-yl)-[3-((E)-2-cyano-vinyl)-5-methyl-phenyl]-(R)-phosphinic acid methyl ester], the solubility ([4]; 1-propanol) is reported as ~2670 µg/mL, the solubility ([4]; 2-butanol) is reported as < 2670 µg/mL and the solubility ([4]; 2-propanol) is reported as < 2670 µg/mL. The solubility ([4]; ethanol) was 3640 µg/mL, the solubility ([4]; methanol) was 10000 µg/mL and the solubility ([4]; nitromethane) was 5710 µg/mL.
In the case of CO[P@](=O)(c1cc(C)cc(/C=C/C#N)c1)c1c(C(N)=O)[nH]c2ccc(Cl)cc12 [Form I, (2-carbamoyl-5-chloro-1H-indol-3-yl)-[3-((E)-2-cyano-vinyl)-5-methyl-phenyl]-(R)-phosphinic acid methyl ester], the “Apparent Kinetic Solubility” value ([5]; listed as I) is reported as 1.81 mg/mL, the “relative solubility among Forms I, VIII and IX” value [5] is reported as “highest solubility” and the “water content level needed to stabilize Form I (anhydrate)” value [6] is reported as ≤ 24 wt %. The “XRD pattern after slurry in water” value ([3]; water, ambient temperature and 50° C., up to 6 days) was “did not show changes in XRD pattern” and the solubility in water [7] was “practically insoluble”.
In the case of COP(=O)(c1cc(C)cc(/C=C/C#N)c1)c1c(C(N)=O)[nH]c2ccc(Cl)cc12 (stereo not shown) [Form IX, (2-carbamoyl-5-chloro-1H-indol-3-yl)-[3-((E)-2-cyano-vinyl)-5-methyl-phenyl]phosphinic acid methyl ester], the solubility kinetic ([5]; 25 °C, organic solvent or mixture, thermodynamic from solid) is reported as 160 µg/mL (≈ 387 µM), the “relative solubility among Forms I, VIII and IX” value [5] is reported as “lowest solubility” and the “thermodynamic stability among forms” value ([8]; ambient temperature and pressure) is reported as “most stable form”. The “form after slurry in water” value ([8]; water, several days) was “remained unchanged”.
For CO[P@](=O)(c1cc(C)cc(/C=C/C#N)c1)c1c(C(N)=O)[nH]c2ccc(Cl)cc12 [Form VIII, (2-carbamoyl-5-chloro-1H-indol-3-yl)-[3-((E)-2-cyano-vinyl)-5-methyl-phenyl]-(R)-phosphinic acid methyl ester], the “Apparent Kinetic Solubility” value ([5]; listed as VIII) was 0.31 mg/mL and the “critical water activity level for Form I/Form VIII interconversion” value ([8]; methanol/water bridging experiments) was 40-60 vol % water.
